Measured values as given in paper PMC11984392, “EphA2-targeted alpha-particle theranostics for enhancing PDAC treatment” (Theranostics, 2025).
Where two headings read alike, the source gives them in different places. *1 amine or outer side, *2 acyl side, *3 side chain or, on linkers, in order; H or OH if unused. Where a SMILES comes first, the peptide text is derived from it. Bridges are numbered along the chain shown (N, C = ends). [ ]: non-standard residue; d: D form. The star is where a group is joined. TATA = O=C(CC[*:1])N1CN(C(=O)CC[*:2])CN(C(=O)CC[*:3])C1; NOTA = O=C(O)CN1CCN(CC(=O)O)CCN(CC(=O)*)CC1; Hyp = O=C(O)[C@@H]1C[C@@H](O)CN1; hArg = N=C(N)NCCCC[C@H](N)C(=O)O; PEG2 = NCCOCCOCCC(=O)O; Sar = CNCC(=O)O

Legend:
Ex vivo biodistribution = assay: Ex vivo biodistribution; design: species or system NSG mice; conditions: both sexes, NSG, mouse, in vivo, total radioactivity, mean ± SEM (n = 4 or 5); for tissue uptake at 2 h / tissue to tissue ratio at 2 h: 120 min p.i.; for tissue to tissue ratio at 2 h: dimensionless; for tissue uptake at 5 min: 5 min p.i.; for tissue uptake at 0.5 h: 30 min p.i.; for tissue uptake at 1.5 h: 90 min p.i.
Method: (§1) Animal studies were performed under Johns Hopkins University Animal Care and Use Committee (ACUC)-approved protocol (Principal investigator: Sridhar Nimmagadda, Ph.D. and Protocol number M021M175). Male and Female NSG mice (5-6 weeks old) were purchased from JHU immunocompromised core and used to establish xenografts by administering cells subcutaneously (top right flank, unless otherwise noted) to form various tumor models within 3-4 weeks. Following cell numbers were used: Panc1, AsPC1, BxPC3 (1 M), Hs766T and SU8686 (2 M), CFPAC and Panc1005 (5 M). Imaging or biodistribution studies (n = 3-5) were conducted on mice with tumor volumes of 100-200 mm^3. The Panc1 orthotopic tumor model was established by surgically implanting a 3-5 mm^3 section of Panc1 tumor xenograft directly onto the pancreas. The implanted tumors were allowed to grow and were ready for imaging after 10 days of implantation.
(§2) Mice with 100-200 mm^3 tumor volume were used for ex vivo biodistribution studies. For radiotracer pharmacokinetics and dosimetry studies, mice with Panc1 tumor xenograft received ~80 µCi (2.96 MBq) [^68Ga]AJ201 and were sacrificed at pre-determined time points (5, 30, 60, 90 and 120 min). All other mice were injected with ~50 µCi (1.85 MBq; 0.2 to 0.5 nmol) Ga-68 labeled radiotracer and were sacrificed at 60 min. The selected tissues were collected, weighed, counted, and their %ID/g values calculated for biodistribution analysis. For pharmacokinetics and dosimetry studies, selected tissues included blood, muscle, tumor, thymus, heart, lung, liver, pancreas, stomach, small intestine, large intestine, spleen, adrenals, kidney, bladder, femur, brain and tumor xenografts. For other studies, selected tissues were blood, muscle, tumor, heart, lung, liver, pancreas, small intestine, spleen, kidney.

BxPC3 tumor xenografts = assay: Ex vivo biodistribution; format: in vivo, NSG mice; conditions: BxPC3 xenograft; 60 min p.i.; mean ± SEM (n = 4 or 5)
Method: as §1, §2

[1] = iv, i.v., read-out: Adrenals uptake
[2] = iv, i.v., read-out: Bladder uptake
[3] = iv, i.v., read-out: Femur uptake
[4] = iv, i.v., read-out: Kidney uptake
[5] = iv, i.v., read-out: Large Intestine uptake
[6] = iv, i.v., read-out: Small intestine uptake
[7] = iv, i.v., read-out: Spleen uptake

## CC(C)C[C@@H]1NC(=O)[C@@H]2CSCCC(=O)N3CN(CN(C3)C(=O)CCSC[C@H](NC(=O)[C@H](CC(=O)O)NC(=O)[C@H](CCCCNC(=N)N)NC(=O)[C@H](C)NC(=O)CNC(=O)CN(C)C(=O)CN(C)C(=O)CN(C)C(=O)[C@H](CCCNC(=N)N)NC(=O)CNC(=O)CCOCCOCCNC(=O)CN3CCN(CC(=O)O)CCN(CC(=O)O)CC3)C(=O)N3C[C@H](O)C[C@H]3C(=O)N[C@@H](CC(C)C)C(=O)N[C@@H](C(C)C)C(=O)N[C@@H](CC(N)=O)C(=O)N3CCC[C@H]3C(=O)N[C@@H](CC(C)C)C(=O)N2)C(=O)CCSC[C@@H](C(N)=O)NC(=O)[C@H](CCCCNC(=N)N)NC(=O)[C@H](Cc2c[nH]c3ccccc23)NC(=O)[C@@H](CC(=O)O)NC(=O)[C@@H]2CCCN2C(=O)[C@H](Cc2c[nH]cn2)NC1=O [[^68Ga]AJ201, metal not drawn] ({NOTA-PEG2}-GR[Sar][Sar][Sar]GA[hArg]DC[Hyp]LVNPLCLHP[dD]W[hArg]C-NH2; linker 10-17-24 via TATA)
Ex vivo biodistribution; iv, 80 uCi, i.v., read-out: Pancreas uptake
  tissue uptake at 2 h: 0.36 ± 0.07 %ID/g
Ex vivo biodistribution; iv, 80 uCi, i.v., read-out: Thymus uptake
  tissue uptake at 2 h: 1.21 ± 0.52 %ID/g
Ex vivo biodistribution; iv, 80 uCi, i.v., read-out: Tumor uptake
  tissue uptake at 2 h: 6.46 ± 0.39 %ID/g
Ex vivo biodistribution; iv, 80 uCi, read-out: Tumor/Muscle ratio
  tissue to tissue ratio at 2 h: 24.9 ± 1.93
Ex vivo biodistribution; iv, 80 uCi, read-out: Tumor/Pancreas ratio
  tissue to tissue ratio at 2 h: 18.7 ± 2.39
Ex vivo biodistribution; iv, 80 uCi, read-out: Tumor/blood ratio
  tissue to tissue ratio at 2 h: 8.36 ± 1.85
Ex vivo biodistribution; [1]
  tissue uptake at 5 min: 4.91 ± 1.83 %ID/g
  tissue uptake at 0.5 h: 2.44 ± 0.46 %ID/g
  tissue uptake at 1.5 h: 1.85 ± 0.46 %ID/g
  tissue uptake at 2 h: 2.69 ± 0.27 %ID/g
Ex vivo biodistribution; [2]
  tissue uptake at 5 min: 28.1 ± 12.1 %ID/g
  tissue uptake at 0.5 h: 53.8 ± 30.8 %ID/g
  tissue uptake at 1.5 h: 18.3 ± 6.35 %ID/g
  tissue uptake at 2 h: 19 ± 8.08 %ID/g
Ex vivo biodistribution; [3]
  tissue uptake at 5 min: 2.77 ± 0.13 %ID/g
  tissue uptake at 0.5 h: 1.36 ± 0.37 %ID/g
Ex vivo biodistribution; [4]
  tissue uptake at 5 min: 37.5 ± 5.93 %ID/g
  tissue uptake at 0.5 h: 56.9 ± 1.26 %ID/g
  tissue uptake at 1.5 h: 61.8 ± 11.5 %ID/g
  tissue uptake at 2 h: 52 ± 7.46 %ID/g
Ex vivo biodistribution; [5]
  tissue uptake at 5 min: 3.67 ± 0.66 %ID/g
  tissue uptake at 0.5 h: 1.95 ± 0.98 %ID/g
  tissue uptake at 1.5 h: 1.46 ± 0.35 %ID/g
  tissue uptake at 2 h: 1.02 ± 0.3 %ID/g
Ex vivo biodistribution; [6]
  tissue uptake at 5 min: 3.25 ± 0.3 %ID/g
  tissue uptake at 0.5 h: 1.16 ± 0.18 %ID/g
  tissue uptake at 1.5 h: 0.6 ± 0.15 %ID/g
  tissue uptake at 2 h: 0.45 ± 0.24 %ID/g
Ex vivo biodistribution; [7]
  tissue uptake at 5 min: 7.95 ± 1.66 %ID/g
  tissue uptake at 0.5 h: 3.87 ± 1.1 %ID/g
  tissue uptake at 1.5 h: 1.81 ± 0.78 %ID/g
  tissue uptake at 2 h: 1.55 ± 0.47 %ID/g
Ex vivo biodistribution; iv, 60 min p.i., i.v., read-out: Bladder uptake
  tissue uptake at 1 h: 48.6 ± 15.5 %ID/g
Ex vivo biodistribution; iv, 60 min p.i., i.v., read-out: Femur uptake
  tissue uptake at 1 h: 0.28 ± 0.06 %ID/g
Ex vivo biodistribution; iv, 60 min p.i., i.v., read-out: Kidney uptake
  tissue uptake at 1 h: 45.5 ± 2.9 %ID/g
Ex vivo biodistribution; iv, 60 min p.i., i.v., read-out: Large Intestine uptake
  tissue uptake at 1 h: 0.15 ± 0.01 %ID/g
Ex vivo biodistribution; iv, 60 min p.i., i.v., read-out: Small intestine uptake
  tissue uptake at 1 h: 0.49 ± 0.07 %ID/g
Ex vivo biodistribution; iv, 60 min p.i., i.v., read-out: Spleen uptake
  tissue uptake at 1 h: 0.74 ± 0.17 %ID/g
Ex vivo biodistribution; iv, i.v., read-out: Stomach with contents uptake
  tissue uptake at 2 h: 0.3 ± 0.01 %ID/g
Ex vivo biodistribution; 60 min p.i. with blocking (non-radioactive AJ201 pre-administered), read-out: Adrenals uptake
  tissue uptake at 1 h: 2.36 ± 1.09 %ID/g
Ex vivo biodistribution; 60 min p.i. with blocking (non-radioactive AJ201 pre-administered), read-out: Bladder uptake
  tissue uptake at 1 h: 14.4 ± 13.2 %ID/g
Ex vivo biodistribution; 60 min p.i. with blocking (non-radioactive AJ201 pre-administered), read-out: Blood uptake
  tissue uptake at 1 h: 0.65 ± 0.11 %ID/g
Ex vivo biodistribution; 60 min p.i. with blocking (non-radioactive AJ201 pre-administered), read-out: Brain uptake
  tissue uptake at 1 h: 0.04 ± 0.001 %ID/g
Ex vivo biodistribution; 60 min p.i. with blocking (non-radioactive AJ201 pre-administered), read-out: Femur uptake
  tissue uptake at 1 h: 0.38 ± 0.05 %ID/g
Ex vivo biodistribution; 60 min p.i. with blocking (non-radioactive AJ201 pre-administered), read-out: Heart uptake
  tissue uptake at 1 h: 0.31 ± 0.05 %ID/g
Ex vivo biodistribution; 60 min p.i. with blocking (non-radioactive AJ201 pre-administered), read-out: Kidney uptake
  tissue uptake at 1 h: 71.3 ± 14.2 %ID/g
Ex vivo biodistribution; 60 min p.i. with blocking (non-radioactive AJ201 pre-administered), read-out: Large Intestine uptake
  tissue uptake at 1 h: 0.93 ± 0.4 %ID/g
Ex vivo biodistribution; 60 min p.i. with blocking (non-radioactive AJ201 pre-administered), read-out: Liver uptake
  tissue uptake at 1 h: 0.48 ± 0.07 %ID/g
Ex vivo biodistribution; 60 min p.i. with blocking (non-radioactive AJ201 pre-administered), read-out: Lung uptake
  tissue uptake at 1 h: 0.8 ± 0.14 %ID/g
Ex vivo biodistribution; 60 min p.i. with blocking (non-radioactive AJ201 pre-administered), read-out: Muscle uptake
  tissue uptake at 1 h: 0.26 ± 0.03 %ID/g
Ex vivo biodistribution; 60 min p.i. with blocking (non-radioactive AJ201 pre-administered), read-out: Pancreas uptake
  tissue uptake at 1 h: 0.3 ± 0.03 %ID/g
Ex vivo biodistribution; 60 min p.i. with blocking (non-radioactive AJ201 pre-administered), read-out: Small intestine uptake
  tissue uptake at 1 h: 0.51 ± 0.08 %ID/g
Ex vivo biodistribution; 60 min p.i. with blocking (non-radioactive AJ201 pre-administered), read-out: Spleen uptake
  tissue uptake at 1 h: 0.7 ± 0.11 %ID/g
Ex vivo biodistribution; 60 min p.i. with blocking (non-radioactive AJ201 pre-administered), read-out: Stomach with contents uptake
  tissue uptake at 1 h: 0.19 ± 0.06 %ID/g
Ex vivo biodistribution; 60 min p.i. with blocking (non-radioactive AJ201 pre-administered), read-out: Thymus uptake
  tissue uptake at 1 h: 2.28 ± 0.53 %ID/g
Ex vivo biodistribution; 60 min p.i. with blocking (non-radioactive AJ201 pre-administered), read-out: Tumor uptake
  tissue uptake at 1 h: 1.08 ± 0.24 %ID/g
Ex vivo biodistribution; 60 min p.i. with blocking (non-radioactive AJ201 pre-administered), read-out: Tumor/Muscle ratio
  tissue to tissue ratio at 1 h: 4.4 ± 1.19
Ex vivo biodistribution; 60 min p.i. with blocking (non-radioactive AJ201 pre-administered), read-out: Tumor/Pancreas ratio
  tissue to tissue ratio at 1 h: 3.5 ± 0.7
Ex vivo biodistribution; 60 min p.i. with blocking (non-radioactive AJ201 pre-administered), read-out: Tumor/blood ratio
  tissue to tissue ratio at 1 h: 1.66 ± 0.37
BxPC3 tumor xenografts
  Heart uptake: 0.29 ± 0.01 %ID/g
